# In patent US4931270A, “Method for detecting dopaminergic diseases using fluorine-18 radiolabelled D2 dopamine receptor ligands” (Nelson Research & Development, priority 1988, dated 1990):
# Key:
# D1 -dopamine = biological target: T1, D1 -dopamine (Bos taurus, UniProt Q95136); experiment: Radioligand binding (displacement of 3H-SCH23390), bovine striatal membranes; conditions: bovine striatum membranes
# T1 construct: Membranes derived from bovine striatum (for assaying dopamine receptors); from tissue; host or cells: bovine striatum membranes
# Experimental: (§1) The selectivity of 2-[N-3-fluoropropyl-N-2-(2 thienyl)ethylamine]-5-hydroxytetralin has been investigated using radioligand binding assays to determine the binding affinity at different receptor types, namely D1 and D2 dopamine and α-adrenergicreceptor sites.
# (§2) Membranes derived from bovine striatum (for assaying dopamine receptors) and rat cerebral cortex (for assaying α-adrenergic receptors) were prepared as follows. The tissue was homogenized using a tissue disrupter and centrifuged. The pellet was washed by resuspension and centrifugation. The bovine striatal membranes were […] and thawed just prior to use. […]
# α-adrenergic = experiment: Radioligand binding (displacement of 3H-prazosin), rat cerebral cortex membranes
# Experimental: as §1, §2
# D2 -dopamine = biological target: T2, D2 -dopamine (Bos taurus, UniProt P20288); experiment: Radioligand binding (displacement of 3H-N-0437), bovine striatal membranes
# T2 construct: Membranes derived from bovine striatum (for assaying dopamine receptors); from tissue; host or cells: bovine striatum membranes
# Experimental: as §1
# Membranes derived from bovine striatum (for assaying dopamine receptors) and rat cerebral cortex (for assaying α-adrenergic receptors) were prepared as follows. The tissue was homogenized using a tissue disrupter and centrifuged. The pellet was washed by resuspension and centrifugation. The bovine striatal membranes were […] and thawed just prior to use.
# The radioligands ^3 H-prazosin, H^3 [((R)-(+)-8 chloro-2, 3, 4, 5-tetrahydro-3-methyl-5-phenyl-H-3-benzazepin-7-ol](^3 H-SCH23390), and H^3 [5-hydroxy-2-(N-n-propyl-N-2-[2-thienyl]ethylamino)tetralin] (^3 H-N-0437) were used to label α-adrenegic, D1 -dopamine and D2 -dopamine receptors, respectively. Increasing concentrations of 2-[N-3-fluoropropyl-N-2-(2-thienyl)ethylamine]-5-hydroxy-tetralin were used to displace the binding of these radioligands from their respective receptors. Competition binding curves were hand drawn to fit the data, and IC50 values were determined graphically. The IC50 value indicates the concentration of test drug required to displace from attachment at the receptor site of interst 50 percent of the ligands of known affinity already in attachment there.
# T2 sequence (P20288 whole entry): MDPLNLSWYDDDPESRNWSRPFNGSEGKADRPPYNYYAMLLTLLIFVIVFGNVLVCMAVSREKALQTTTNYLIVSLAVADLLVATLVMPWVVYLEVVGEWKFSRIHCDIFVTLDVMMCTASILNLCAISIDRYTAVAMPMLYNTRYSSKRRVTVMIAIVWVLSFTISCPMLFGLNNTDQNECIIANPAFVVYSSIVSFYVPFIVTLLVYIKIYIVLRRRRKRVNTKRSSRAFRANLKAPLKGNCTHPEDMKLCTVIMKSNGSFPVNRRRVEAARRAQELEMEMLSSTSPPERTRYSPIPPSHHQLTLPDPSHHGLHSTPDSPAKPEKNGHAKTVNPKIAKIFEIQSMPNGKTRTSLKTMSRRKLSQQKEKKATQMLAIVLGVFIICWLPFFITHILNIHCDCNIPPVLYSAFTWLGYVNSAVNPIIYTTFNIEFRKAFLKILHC
# T1 sequence (Q95136 whole entry): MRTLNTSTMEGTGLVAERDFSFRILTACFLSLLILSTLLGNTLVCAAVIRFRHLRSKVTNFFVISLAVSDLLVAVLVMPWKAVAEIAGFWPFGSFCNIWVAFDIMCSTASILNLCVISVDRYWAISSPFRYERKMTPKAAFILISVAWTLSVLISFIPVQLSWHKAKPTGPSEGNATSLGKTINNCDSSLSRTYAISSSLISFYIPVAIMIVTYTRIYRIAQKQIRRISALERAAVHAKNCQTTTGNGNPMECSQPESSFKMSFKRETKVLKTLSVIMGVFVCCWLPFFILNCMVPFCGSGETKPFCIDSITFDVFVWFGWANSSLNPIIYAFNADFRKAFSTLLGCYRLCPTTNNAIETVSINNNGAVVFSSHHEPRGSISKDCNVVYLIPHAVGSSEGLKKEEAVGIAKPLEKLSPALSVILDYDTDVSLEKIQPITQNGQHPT
compound,measurement,setting,value
Oc1cccc2c1CCC(N(CCCF)CCc1cccs1)C2 (stereo not drawn) [2-[N-3-Fluoropropyl-N-2-(2-thienyl)ethylamino]-5-hydroxytetralin],IC50,D1 -dopamine,> 10 µM
same,IC50,α-adrenergic,5.7 µM
same,affinity for dopamine D2 receptor sites (in words),D2 -dopamine,unexpectedly high affinity
same,IC50,"D2 -dopamine; D2 -dopamine, 3H-N-0437, bovine striatum membranes",0.00103 ± 0.00049 µM
same,times more potent in binding to D2 -dopamine receptors than to α-adrenergic receptors,D2 -dopamine; D2 versus α-adrenergic,more than 5000 times
same,selectivity for D2 -dopamine receptors (in words),D2 -dopamine; versus D1 and α-adrenergic,selective for D2 -dopamine receptors
